Values after ≈ are worked out from the molar mass of the structure shown. Values joined by “and” are separate entries in the source; they are usually repeats but may differ in a detail not shown here. Equal entries are not always repeated. Where two headings read alike, the source gives them in different places. Numbered stars: 1 amine (or outer) side, 2 acyl side, 3 side chain; on linkers, the order of the positions; unused ones are H or OH. Square brackets hold non-standard residues; d marks the D form. Peptide text beside a SMILES is read from it. ξ: configuration not given here. X4 = CN1CCN(c2cc(-c3cccc(C[C@@H](C(=O)[*:2])N(C)[*:1])c3)ccn2)CC1; X5 = CN([C@@H](Cc1cccc(-c2ccc3cnccc3c2)c1)C(=O)[*:2])[*:1]; Hmp(2R,3S) = CC[C@H](C)[C@@H](O)C(=O)O; NMeVal(β-OH) = CN[C@H](C(=O)O)C(C)(C)O; X6 = CCC(C)[C@@H](O[*:1])C(=O)[*:2]; Ile(3ξ) = CCC(C)[C@H](N)C(=O)O; NMeV = CN[C@H](C(=O)O)C(C)C; ξL = CC(C)CC(N)C(=O)O
Assays:
[1] = system: A. fumigatus MMX 5280 ATCC MYA-3626; assay: MIC/MEC assay (CLSI microdilution); format: cell-based, Aspergillus fumigatus
Protocol: (§1) Aureobasidin and test compounds (i.e., AbA derivatives of the present invention) were received from Kalexsyn, Inc. (Kalamazoo, Mich.) as powder and were stored at 4° C. until the day of assay. […] amphotericin was obtained from Sigma Aldrich and stored under like conditions. […] Ethanol (95%) was used as a solvent and diluent for all AbA compounds. Amphotericin B was tested from 0.06-64 μg/mL. Amphotericin B (Sigma Aldrich; St. Louis, Mo.; Cat No. A9528-100MG, Lot No. 120M4087) was dissolved and diluted with dimethylsulfoxide (DMSO; Sigma Aldrich; St. Louis, Mo.; Cat No. 472301 Lot No. SHBD2072V).
(§2) The solvents were added to the test agents and the stock solutions stood for approximately 1 hr at room temperature prior to use to auto sterilize. Stock solutions were prepared at 40× the desired top concentration in the test plate.
(§3) All of the test isolates were originally received from either the American Type Culture Collection (ATCC), clinical labs, or directly from Aureogen Biosciences. Organisms stored by Micromyx were cultured on agar medium appropriate to each organism. Colonies were picked by swab from the isolation plates and put into suspension in appropriate broth containing cryoprotectant. The suspensions were aliquoted into cryogenic vials and maintained at −80° C.
(§4) Prior to testing, Candida isolates were streaked from the frozen vials on Sabouraud dextrose agar. The yeast isolates were incubated for 48 hours at 35° C. before use. The fungal isolates were obtained from enumerated fungal stocks previously prepared at Micromyx and stored in phosphate buffered saline at 4° C.
(§5) Test Media. The medium employed for the MIC assay was RPMI-1640 medium from HyClone Laboratories (Logan, Utah; Lot No. AYB60287A). The medium was prepared according to Clinical and Laboratory Standards Institute (CLSI) guidelines (1, 2), and modified to include 0.002% Tween-80. Candida parapsilosis ATCC 22019 (MMX 2323) and Aspergillus fumigatus ATCC MYA-3626 (MMX 5280) were also tested without Tween-80 to provide data for the quality control of amphotericin B in accordance with CLSI (3) and to assess the effect of Tween-80 on the activity of the test agents.
(§6) Test Procedure. The MIC assay method followed the procedure described by CLSI (1, 2) and employed automated liquid handlers to conduct serial dilutions and liquid transfers. Automated liquid handlers included the Multidrop 384 (Labsystems, Helsinki, Finland), Biomek 2000 and Biomek FX (Beckman Coulter, Fullerton Calif.). The wells in columns 2-12 in standard 96-well microdilution plates (Costar 3795) were filled with 150 μl of the appropriate diluent (95% EtOH for investigational compounds, 100% DMSO for amphotericin B). These assay plates would become the ‘mother plates’ from which the assay ‘daughter plates’ would be prepared. The drugs (300 μL at 40× the desired top concentration in the test plates) were dispensed into the appropriate well in Column 1 of the mother plates. The Biomek 2000 was used to make two-fold serial dilutions through Column 11 in the “mother plate”. The wells of Column 12 contained no drug and served as the organism growth control wells.
(§7) The daughter plates were loaded with 185 μL per well on the Multidrop 384 with RPMI plus 0.002% Tween-80 or RPMI containing no Tween-80 for the testing of the two QC isolates. The daughter plates were prepared on the Biomek FX instrument which transferred 5 μL of drug solution from each well of a mother plate to each corresponding well of each daughter plate in a single step.
(§8) A standardized inoculum of each organism was prepared per CLSI methods (1, 2). For the Candida isolates, colonies were picked from the streak plate and a suspension was prepared in RPMI to equal a 0.5 McFarland standard. This suspension was diluted 1:100 in RPMI resulting in a final concentration of approximately 0.5-2.5×10^3 CFU/mL. […]

[2] = system: A. fumigatus MMX 6782 ATCC 13073; assay: MIC/MEC assay (CLSI microdilution); format: cell-based; conditions: Aspergillus fumigatus, ATCC13073, 48 h
Protocol: as §1, §2, §3, §4, §5, §6, §7, §8

[3] = system: A. flavus MMX 5948; assay: MIC/MEC assay (CLSI microdilution); format: cell-based
Protocol: as §1, §2, §3, §4, §5, §6, §7, §8

[4] = system: A. niger MMX 0624 ATCC 16888; assay: MIC/MEC assay (CLSI microdilution); format: cell-based; conditions: Aspergillus niger, ATCC16888, 48 h
Protocol: as §1, §2, §3, §4, §5, §6, §7, §8

[5] = system: A. fumigatus MMX 5944; assay: MIC/MEC assay (CLSI microdilution); format: cell-based
Protocol: as §1, §2, §3, §4, §5, §6, §7, §8

[6] = system: C. parapsilosis MMX 2323 ATCC 22019; assay: MIC assay (CLSI microdilution); format: cell-based, Candida parapsilosis
Protocol: as §1, §2, §3, §4, §5, §6, §7, §8

[7] = system: A. fumigatus from Aureogen; assay: MIC/MEC assay (CLSI microdilution); format: cell-based
Protocol: as §1, §2, §3, §4, §5, §6, §7, §8

[8] = system: A. fumigatus MMX 6781 ATCC MYA-4609; assay: MIC/MEC assay (CLSI microdilution); format: cell-based; conditions: Aspergillus fumigatus
Protocol: as §1, §2, §3, §4, §5, §6, §7, §8

[9] = system: C. neoformans MMX 0634 ATCC 90112; assay: MIC assay (CLSI microdilution); format: cell-based; conditions: Cryptococcus neoformans, ATCC90112, RPMI plus 0.002% Tween-80; read-out: MIC
Protocol: as §1, §2, §3, §4, §5, §6, §7, §8

[10] = read-out: MEC, RPMI plus 0.002% Tween-80
[11] = RPMI plus 0.002% Tween-80, 48 hr
[12] = Aspergillus fumigatus, 48 h, RPMI plus 0.002% Tween-80, read-out: MIC
[13] = RPMI plus 0.002% Tween-80, read-out: MIC

CCC(C)[C@@H]1NC(=O)[C@@H]2CCCN2C(=O)[C@H](Cc2cccc(-c3ccc4cnccc4c3)c2)N(C)C(=O)[C@H](Cc2ccccc2)NC(=O)[C@H](C(C)C)N(C)C(=O)[C@@H](C(C)CC)OC(=O)[C@H](C(C)(C)O)N(C)C(=O)C(CC(C)C)NC(=O)[C@H](C(C)C)N(C)C1=O (stereo partly drawn) [Compound 6] (cyclo(F[X5]P[Ile(3ξ)][NMeV][ξL][NMeVal(β-OH)][X6][NMeV]))
minimal effective concentration ([1]; Aspergillus fumigatus, 48 h, read-out: MEC, RPMI plus 0.002% Tween-80): 1 µg/mL | minimal effective concentration ([1]; Aspergillus fumigatus, 48 h, read-out: MEC, Without Tween-80): 2 µg/mL | MIC ([1]; Without Tween-80, 48 hr): > 64 µg/mL | minimal effective concentration [2, 10]: 0.25 µg/mL | MIC ([3]; Aspergillus flavus, MMX5948, 48 h, RPMI plus 0.002% Tween-80): 0.25 µg/mL | MIC ([4]; RPMI plus 0.002% Tween-80): 0.12 µg/mL | minimal effective concentration [4, 10]: 0.12 µg/mL | MEC [5, 11]: 0.5 µg/mL | MIC ([6]; ATCC22019, RPMI plus 0.002% Tween-80): 0.12 µg/mL | MIC ([6]; ATCC22019, Without Tween-80): 1 µg/mL (≈ 0.814 µM)

CC[C@H](C)[C@@H]1NC(=O)[C@@H]2CCCN2C(=O)[C@H](Cc2cccc(-c3ccnc(N4CCN(C)CC4)c3)c2)N(C)C(=O)[C@H](Cc2ccccc2)NC(=O)[C@H](C(C)C)N(C)C(=O)[C@@H]([C@@H](C)CC)OC(=O)[C@H](C(C)(C)O)N(C)C(=O)[C@H](CC(C)C)NC(=O)[C@H](C(C)C)N(C)C1=O [Compound 15] (cyclo(F[X4]PI[NMeV]L[NMeVal(β-OH)][Hmp(2R,3S)][NMeV]))
minimal effective concentration ([1]; Aspergillus fumigatus, 48 h, RPMI plus 0.002% Tween-80, read-out: MEC): 0.12 µg/mL | MIC [1, 12]: 0.25 µg/mL | MIC ([1]; Aspergillus fumigatus, 48 h, Without Tween-80, read-out: MIC): 1 µg/mL (≈ 0.783 µM) | MEC ([1]; Without Tween-80, 48 hr): 1/1 μg/mL and 1 μg/mL | MIC ([1]; Without Tween-80, 48 hr): 2 µg/mL (≈ 1.57 µM) | MIC [2, 13]: 0.5 µg/mL | MIC ([3]; Aspergillus flavus, MMX5948, 48 h, RPMI plus 0.002% Tween-80, read-out: MIC): 0.25 µg/mL | MIC [3, 11]: 0.25 µg/mL | minimal effective concentration ([7]; Aspergillus fumigatus, 48 h, RPMI plus 0.002% Tween-80): 0.06 µg/mL | MIC [7, 12]: 0.25 µg/mL | MIC [7, 11]: 0.25 µg/mL | MIC [4, 13]: 0.03 µg/mL | minimal effective concentration ([5]; Aspergillus fumigatus, MMX5944, 48 h, RPMI plus 0.002% Tween-80): 0.06 µg/mL | MIC ([5]; Aspergillus fumigatus, MMX5944, 48 h, RPMI plus 0.002% Tween-80, read-out: MIC): 0.5 µg/mL | MIC ([8]; 48 h, RPMI plus 0.002% Tween-80, read-out: MIC): 0.25 µg/mL | minimal effective concentration [8, 11]: 0.12 µg/mL | MIC ([6]; ATCC22019, RPMI plus 0.002% Tween-80, read-out: MIC): 0.03 µg/mL | MIC ([6]; ATCC22019, Without Tween-80, read-out: MIC): 0.5 µg/mL (≈ 0.392 µM) | MIC ([6]; Without Tween-80): 0.5 µg/mL (≈ 0.392 µM) | MIC [9]: 0.06 µg/mL

Source: patent US11066447B2, “Aureobasidium derivatives and methods of synthesis” (AureoGen Biosciences, Inc., priority 2016, dated 2021)
